What was measured:
Type in all cases: biochemical
human PKCε = target: T1, human PKCε (Homo sapiens, UniProt Q02156); assay: PKC isoforms based HTRF KinEASE-STK assay, PKCε; conditions: 25 μM ATP in substrate mix, 30 min
T1 sequence (Q02156 1-737): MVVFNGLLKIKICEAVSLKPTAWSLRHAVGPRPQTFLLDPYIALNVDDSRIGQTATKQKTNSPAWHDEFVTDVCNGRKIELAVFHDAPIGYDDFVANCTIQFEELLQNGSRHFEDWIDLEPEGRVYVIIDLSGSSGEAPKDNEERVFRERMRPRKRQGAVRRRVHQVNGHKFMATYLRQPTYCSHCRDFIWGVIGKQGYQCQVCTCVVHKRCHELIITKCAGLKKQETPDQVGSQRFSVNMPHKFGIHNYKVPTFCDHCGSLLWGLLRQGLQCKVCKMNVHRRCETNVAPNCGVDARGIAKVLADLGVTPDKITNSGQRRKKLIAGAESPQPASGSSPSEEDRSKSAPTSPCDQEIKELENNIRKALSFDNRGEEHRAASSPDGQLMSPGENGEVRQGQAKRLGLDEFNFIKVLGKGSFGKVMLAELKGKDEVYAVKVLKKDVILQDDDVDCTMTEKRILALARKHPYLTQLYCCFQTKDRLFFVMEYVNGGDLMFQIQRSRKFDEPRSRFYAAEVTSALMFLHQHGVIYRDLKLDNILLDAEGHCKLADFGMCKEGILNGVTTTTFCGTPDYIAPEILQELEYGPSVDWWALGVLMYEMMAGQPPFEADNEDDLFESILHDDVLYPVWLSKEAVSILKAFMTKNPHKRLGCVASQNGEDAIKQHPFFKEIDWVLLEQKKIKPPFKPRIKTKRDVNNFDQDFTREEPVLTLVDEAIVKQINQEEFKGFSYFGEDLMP
Text: (§1) The purpose of this assay is to evaluate the inhibitory activity of compounds on various PKC isoforms. It has been reported that perturbations in vascular cell homeostasis caused by different PKC isoforms (PKC-α, β1/2, and PKC-δ) are linked to the development of pathologies affecting large vessel (atherosclerosis, cardiomyopathy) and small vessel (retinopathy, nephropathy, and neuropathy) complications. Geraldes, P. and King, G. L., “Activation of Protein Kinase C Isoforms and Its Impact on Diabetic Complications”, Cir.
(§2) Effects of a test compound on the kinase activity of PKCα, β2, δ, ε, ι, and ζ, are determined using a HTRF KINEASE™-STK assay kit (Cisbio) in accordance with the protocol provided by the vendor. It is a general method for measuring Serine/Threonine kinase activities using kinase substrates and a universal detection system. In the current protocol, biotinilated STK1provided in the assay kit is used as the substrate that can be phosphorylated by any PKC isoform. The HTRF KINEASE™-STK assay kit format involves the two steps (Enzymatic step and Detection step) described below. First, the kinase phosphorylates the substrate in the presence of ATP. Second, the detection reagents provided in the assay kit recognize the phosphorylated substrate.

human PKCι = target: T2, human PKCι (Homo sapiens, UniProt P41743); assay: PKC isoforms based HTRF KinEASE-STK assay, PKCι; conditions: 87.5 μM ATP in substrate mix, 70 min
T2 sequence (P41743 1-596): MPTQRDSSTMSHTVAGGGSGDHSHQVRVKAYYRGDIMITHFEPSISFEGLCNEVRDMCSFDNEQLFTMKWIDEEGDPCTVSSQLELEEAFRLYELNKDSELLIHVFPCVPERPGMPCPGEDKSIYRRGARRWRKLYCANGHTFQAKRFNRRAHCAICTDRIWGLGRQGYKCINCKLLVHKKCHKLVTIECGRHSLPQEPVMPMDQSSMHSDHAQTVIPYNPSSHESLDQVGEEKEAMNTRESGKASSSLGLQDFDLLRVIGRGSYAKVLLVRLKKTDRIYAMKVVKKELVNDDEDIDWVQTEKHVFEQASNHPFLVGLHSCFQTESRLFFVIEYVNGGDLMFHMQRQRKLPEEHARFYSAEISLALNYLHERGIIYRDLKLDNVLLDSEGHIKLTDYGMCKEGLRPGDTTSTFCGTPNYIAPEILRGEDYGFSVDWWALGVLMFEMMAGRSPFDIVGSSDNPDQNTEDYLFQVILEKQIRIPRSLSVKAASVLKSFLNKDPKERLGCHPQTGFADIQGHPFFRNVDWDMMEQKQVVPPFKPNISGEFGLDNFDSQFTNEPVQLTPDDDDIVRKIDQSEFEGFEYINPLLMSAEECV
Text: as §1, §2

human PKCδ = human PKCδ (Homo sapiens, UniProt Q05655); assay: PKC isoforms based HTRF KinEASE-STK assay, PKCδ; conditions: 62.5 μM ATP in substrate mix, 40 min
Text: as §1, §2

human PKCβ2 = human PKCβ2 (Homo sapiens, UniProt P05771); assay: PKC isoforms based HTRF KinEASE-STK assay, PKCβ2; conditions: 25 μM ATP in substrate mix, 30 min
Text: as §1, §2

human PKCζ = target: T3, human PKCζ (Homo sapiens, UniProt Q05513); assay: PKC isoforms based HTRF KinEASE-STK assay, PKCζ; conditions: 10 μM ATP in substrate mix, 70 min
T3 sequence (Q05513 1-592): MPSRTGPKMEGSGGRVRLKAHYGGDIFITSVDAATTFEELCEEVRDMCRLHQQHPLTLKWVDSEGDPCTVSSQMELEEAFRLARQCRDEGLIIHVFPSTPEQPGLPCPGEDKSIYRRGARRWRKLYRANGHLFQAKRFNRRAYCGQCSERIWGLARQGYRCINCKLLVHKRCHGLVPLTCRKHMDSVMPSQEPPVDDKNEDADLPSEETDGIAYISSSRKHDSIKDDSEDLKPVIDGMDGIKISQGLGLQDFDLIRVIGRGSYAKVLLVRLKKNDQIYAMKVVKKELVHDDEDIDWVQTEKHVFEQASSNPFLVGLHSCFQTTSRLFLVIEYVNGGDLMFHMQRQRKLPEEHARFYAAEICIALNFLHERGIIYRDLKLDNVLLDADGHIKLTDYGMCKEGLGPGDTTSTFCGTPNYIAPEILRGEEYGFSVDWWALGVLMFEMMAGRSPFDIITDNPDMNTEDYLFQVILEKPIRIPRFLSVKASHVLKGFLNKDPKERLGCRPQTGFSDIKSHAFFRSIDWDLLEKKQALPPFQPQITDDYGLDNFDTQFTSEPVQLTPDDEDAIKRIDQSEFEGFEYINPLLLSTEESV
Text: as §1, §2

human PKCδ, sequence (Q05655 whole entry, canonical isoform): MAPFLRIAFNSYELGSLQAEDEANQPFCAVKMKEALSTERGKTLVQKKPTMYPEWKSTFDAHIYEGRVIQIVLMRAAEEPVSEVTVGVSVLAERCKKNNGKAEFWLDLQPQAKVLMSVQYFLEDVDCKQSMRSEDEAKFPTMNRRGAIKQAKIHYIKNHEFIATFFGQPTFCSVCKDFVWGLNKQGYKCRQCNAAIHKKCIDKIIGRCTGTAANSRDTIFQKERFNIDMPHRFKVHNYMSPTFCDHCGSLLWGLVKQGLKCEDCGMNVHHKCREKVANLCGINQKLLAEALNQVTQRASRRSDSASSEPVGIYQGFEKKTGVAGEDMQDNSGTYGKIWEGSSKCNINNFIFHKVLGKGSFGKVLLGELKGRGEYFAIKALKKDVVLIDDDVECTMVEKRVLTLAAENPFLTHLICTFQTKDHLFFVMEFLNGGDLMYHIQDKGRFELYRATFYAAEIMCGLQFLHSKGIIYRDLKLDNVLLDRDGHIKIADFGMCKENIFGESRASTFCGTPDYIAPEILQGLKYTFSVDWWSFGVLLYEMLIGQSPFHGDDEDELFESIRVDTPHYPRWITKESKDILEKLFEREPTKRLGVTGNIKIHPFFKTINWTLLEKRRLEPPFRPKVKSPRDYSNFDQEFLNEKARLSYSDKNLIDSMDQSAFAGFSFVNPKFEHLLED
human PKCβ2, sequence (P05771 1-673 isoform P05771-2): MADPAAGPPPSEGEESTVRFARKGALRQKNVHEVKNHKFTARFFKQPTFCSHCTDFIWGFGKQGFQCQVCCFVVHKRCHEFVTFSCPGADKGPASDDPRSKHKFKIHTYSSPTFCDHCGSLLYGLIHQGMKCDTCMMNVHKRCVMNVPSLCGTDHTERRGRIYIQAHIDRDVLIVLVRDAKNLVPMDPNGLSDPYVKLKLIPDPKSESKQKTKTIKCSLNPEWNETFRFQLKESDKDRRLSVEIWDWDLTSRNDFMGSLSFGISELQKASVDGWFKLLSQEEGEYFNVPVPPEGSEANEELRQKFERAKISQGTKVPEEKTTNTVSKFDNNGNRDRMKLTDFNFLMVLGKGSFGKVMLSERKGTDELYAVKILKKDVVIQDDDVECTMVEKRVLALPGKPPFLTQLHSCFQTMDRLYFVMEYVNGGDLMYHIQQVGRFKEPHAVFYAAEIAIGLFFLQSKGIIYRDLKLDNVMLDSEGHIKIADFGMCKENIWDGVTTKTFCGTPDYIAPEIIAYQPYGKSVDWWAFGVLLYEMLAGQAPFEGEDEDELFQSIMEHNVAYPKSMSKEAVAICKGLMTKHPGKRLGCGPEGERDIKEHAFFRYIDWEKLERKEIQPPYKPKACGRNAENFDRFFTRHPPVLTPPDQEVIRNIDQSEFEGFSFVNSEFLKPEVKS

- IC50 (human PKCε): ~21.9 nM
- IC50 (human PKCι): > 20000 nM
- IC50 (human PKCδ): ~68 nM
- IC50 (human PKCβ2): ~51 nM
- IC50 (human PKCζ): ~15500 nM
Structure (SMILES): C[C@@H]1CN(C(=O)c2cc(-c3c(F)cc(O)cc3F)cc3cnsc23)C[C@H](C)N1.Cl [Example 2, 4-(7-{[(3R,5 S)-3,5-DIMETHYLPIPERAZIN-1-YL]CARBONYL}-1,2-BENZOTHIAZOL-5-YL)-3,5-DIFLUOROPHENOL HYDROCHLORIDE]
